# Measurements published in patent US9718828B2 (MERCK SHARP & DOHME CORP., priority 2011, dated 2017).
# Structures can show the parent of a compound that is named as a salt. Where two headings read alike, the source gives them in different places.
# Target: Btk enzyme (His-Btk) (Homo sapiens (Human), UniProt Q06187)
# Assay: Btk enzyme activity, IMAP fluorescence polarization assay (Assay Method A)
# [1] = read-out: EC50 Btk activity values - Assay Method A, IMAP-FP, 60 min pre-incubation, 5 μM ATP, class 100-1000 is given as ≧100 nM-<1 μM
# Sequence of Btk enzyme (His-Btk) (Q06187 whole entry): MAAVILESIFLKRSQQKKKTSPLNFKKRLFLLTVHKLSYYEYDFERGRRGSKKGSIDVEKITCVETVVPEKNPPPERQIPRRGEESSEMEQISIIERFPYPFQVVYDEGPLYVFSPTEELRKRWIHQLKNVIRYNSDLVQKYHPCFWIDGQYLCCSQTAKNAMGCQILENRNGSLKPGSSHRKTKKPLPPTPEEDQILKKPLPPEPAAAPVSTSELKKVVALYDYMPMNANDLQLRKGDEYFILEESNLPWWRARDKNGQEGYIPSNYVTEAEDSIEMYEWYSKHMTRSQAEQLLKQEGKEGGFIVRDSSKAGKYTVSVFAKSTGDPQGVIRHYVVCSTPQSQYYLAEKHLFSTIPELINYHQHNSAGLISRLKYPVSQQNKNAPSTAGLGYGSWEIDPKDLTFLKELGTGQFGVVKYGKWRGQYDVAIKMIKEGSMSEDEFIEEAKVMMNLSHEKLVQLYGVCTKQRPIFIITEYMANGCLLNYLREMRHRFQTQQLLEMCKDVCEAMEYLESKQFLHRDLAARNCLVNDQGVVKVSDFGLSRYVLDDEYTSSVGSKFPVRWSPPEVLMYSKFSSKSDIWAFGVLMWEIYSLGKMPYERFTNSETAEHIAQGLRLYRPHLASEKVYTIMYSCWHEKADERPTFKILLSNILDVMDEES
SMILES,EC50 [1] [nM],EC50 [nM]
"Nc1nccn2c(C3CN(C(=O)C4CC4)CCO3)nc(-c3ccc(C(=O)Nc4cc(C(F)(F)F)ccn4)cc3)c12 (stereo not drawn) [Example 176, 4-(8-amino-3-(4-(cyclopropanecarbonyl)morpholin-2-yl)imidazo[1,5-a]pyrazin-1-yl)-N-(4-(trifluoromethyl)pyridin-2-yl)benzamide]",< 10,–
"CCNC(=O)N1CCOC(c2nc(-c3ccc(C(=O)Nc4cc(C(F)(F)F)ccn4)cc3)c3c(N)nccn23)C1 (stereo not drawn) [Example 178, 2-(8-amino-1-(4-(4-(trifluoromethyl)pyridin-2-ylcarbamoyl)phenyl)imidazo [1,5-a]pyrazin-3-yl)-N-ethylmorpholine-4-carboxamide]",< 10,–
"CCCc1ccnc(NC(=O)c2ccc(-c3nc(N4CCC4)n4ccnc(N)c34)cc2)c1 [Example 208, 4-(8-amino-3-(azetidin-1-yl)imidazo[1,5-a]pyrazin-1-yl)-N-(4-propylpyridin-2-yl)benzamide]",< 10,–
"N#Cc1ccnc(NC(=O)c2ccc(-c3nc(N4CCC4)n4ccnc(N)c34)cc2)c1 [Example 209, 4-(8-amino-3-(azetidin-1-yl)imidazo[1,5-a]pyrazin-1-yl)-N-(4-cyanopyridin-2-yl)benzamide]",–,100 to 1000
"Nc1nccn2c(N3CCOCC3)nc(-c3ccc(C(=O)Nc4cc(C(F)(F)F)ccn4)cc3)c12 [Example 211, 4-(8-amino-3-morpholinoimidazo[1,5-a]pyrazin-1-yl)-N-(4-(trifluoromethyl)pyridin-2-yl)benzamide]",< 10,–
"CCCc1ccnc(NC(=O)c2ccc(-c3nc(N4CCOCC4)n4ccnc(N)c34)cc2)c1 [Example 212, 4-(8-amino-3-morpholinoimidazo[1,5-a]pyrazin-1-yl)-N-(4-propylpyridin-2-yl)benzamide]",< 10,–
"CCCc1ccnc(NC(=O)c2ccc(-c3nc(N(CC)CC)n4ccnc(N)c34)cc2)c1 [Example 214, 4-(8-amino-3-(diethylamino)imidazo[1,5-a]pyrazin-1-yl)-N-(4-propylpyridin-2-yl)benzamide]",< 10,–
"CCN(CC)c1nc(-c2ccc(C(=O)Nc3cc(C#N)ccn3)cc2)c2c(N)nccn12 [Example 215, 4-(8-amino-3-(diethylamino)imidazo[1,5-a]pyrazin-1-yl)-N-(4-cyanopyridin-2-yl)benzamide]",–,10 to 100
"CCN(CC)c1nc(-c2ccc(C(=O)Nc3cc(C(F)(F)F)ccn3)cc2)c2c(N)nccn12 [Example 216, 4-(8-amino-3-(diethylamino)imidazo[1,5-a]pyrazin-1-yl)-N-(4-(trifluoromethyl)pyridin-2-yl)benzamide]",–,10 to 100
"COCCC(=O)N[C@@H]1CCCN(c2nc(-c3ccc(C(=O)Nc4cc(C(F)(F)F)ccn4)cc3)c3c(N)nccn23)C1 [Example 219, (R)-4-(8-amino-3-(3-(3-methoxypropanamido)piperidin-1-yl)imidazo[1,5-a]pyrazin-1-yl)-N-(4-(trifluoromethyl)pyridin-2-yl)benzamide]",< 10,–
"CCNC(=O)N[C@@H]1CCCN(c2nc(-c3ccc(C(=O)Nc4cc(C(F)(F)F)ccn4)cc3)c3c(N)nccn23)C1 [Example 221, (R)-4-(8-amino-3-(3-(3-ethylureido)piperidin-1-yl)imidazo[1,5-a]pyrazin-1-yl)-N-(4-(trifluoromethyl)pyridin-2-yl)benzamide]",< 10,–
"CC(C)NC(=O)C1CCCN(c2nc(-c3ccc(C(=O)Nc4cc(C(F)(F)F)ccn4)cc3)c3c(N)nccn23)C1 (stereo not drawn) [Example 224, 1-(8-amino-1-(4-(4-(trifluoromethyl)pyridin-2-ylcarbamoyl)phenyl)imidazo[1,5-a]pyrazin-3-yl)-N-isopropylpiperidine-3-carboxamide]",< 10,–
"Nc1nccn2c(N3CCCC(C(=O)NC[C@@H]4CCCO4)C3)nc(-c3ccc(C(=O)Nc4ccccn4)cc3)c12 (stereo partly drawn) [Example 227, 1-(8-amino-1-(4-(pyridin-2-ylcarbamoyl)phenyl)imidazo[1,5-a]pyrazin-3-yl)-N-(((S)-tetrahydrofuran-2-yl)methyl)piperidine-3-carboxamide, TFA salt]",< 10,–
"CC(C)(C)NC(=O)C1CCCN(c2nc(-c3ccc(C(=O)Nc4ccccn4)cc3)c3c(N)nccn23)C1 (stereo not drawn) [Example 228, 1-(8-amino-1-(4-(pyridin-2-ylcarbamoyl)phenyl)imidazo[1,5-a]pyrazin-3-yl)-N-tert-butylpiperidine-3-carboxamide, TFA salt]",–,10 to 100
"Nc1nccn2c(N3CCCC(C(=O)N4CCOCC4)C3)nc(-c3ccc(C(=O)Nc4ccccn4)cc3)c12 (stereo not drawn) [Example 229, 4-(8-amino-3-(3-(morpholine-4-carbonyl)piperidin-1-yl)imidazo[1,5-a]pyrazin-1-yl)-N-(pyridin-2-yl)benzamide, TFA salt]",–,10 to 100
"CCN(CC)C(=O)C1CCCN(c2nc(-c3ccc(C(=O)Nc4ccccn4)cc3)c3c(N)nccn23)C1 (stereo not drawn) [Example 230, 1-(8-amino-1-(4-(pyridin-2-ylcarbamoyl)phenyl)imidazo[1,5-a]pyrazin-3-yl)-N,N-diethylpiperidine-3-carboxamide, TFA salt]",–,10 to 100
"Nc1nccn2c(N3CCCC(C(=O)NC[C@@H]4CCCO4)C3)nc(-c3ccc(C(=O)Nc4cc(C(F)(F)F)ccn4)cc3)c12 (stereo partly drawn) [Example 231, 1-(8-amino-1-(4-(4-(trifluoromethyl)pyridin-2-ylcarbamoyl)phenyl)imidazo[1,5-a]pyrazin-3-yl)-N-(((S)-tetrahydrofuran-2-yl)methyl)piperidine-3-carboxamide, TFA salt]",< 10,–
"COCCNC(=O)C1CCCN(c2nc(-c3ccc(C(=O)Nc4cc(C(F)(F)F)ccn4)cc3)c3c(N)nccn23)C1 (stereo not drawn) [Example 232, 1-(8-amino-1-(4-(4-(trifluoromethyl)pyridin-2-ylcarbamoyl)phenyl)imidazo[1,5-a]pyrazin-3-yl)-N-(2-methoxyethyl)piperidine-3-carboxamide, TFA salt]",< 10,–
"Nc1nccn2c(N3CCCC(C(=O)NCC4CC4)C3)nc(-c3ccc(C(=O)Nc4cc(C(F)(F)F)ccn4)cc3)c12 (stereo not drawn) [Example 233, 1-(8-amino-1-(4-(4-(trifluoromethyl)pyridin-2-ylcarbamoyl)phenyl)imidazo[1,5-a]pyrazin-3-yl)-N-(cyclopropylmethyl)piperidine-3-carboxamide, TFA salt]",< 10,–
"Nc1nccn2c(N3CCCC(C(=O)N4CCOCC4)C3)nc(-c3ccc(C(=O)Nc4cc(C(F)(F)F)ccn4)cc3)c12 (stereo not drawn) [Example 234, 4-(8-amino-3-(3-(morpholine-4-carbonyl)piperidin-1-yl)imidazo[1,5-a]pyrazin-1-yl)-N-(4-(trifluoromethyl)pyridin-2-yl)benzamide, TFA salt]",< 10,–

# The remaining lines, values ahead:
EC50 [1] [nM],EC50 [nM],SMILES
–,10 to 100,"Nc1nccn2c(N3CCC3)nc(-c3ccc(C(=O)Nc4cc(C(F)(F)F)ccn4)cc3)c12 [Example 210, 4-(8-amino-3-(azetidin-1-yl)imidazo[1,5-a]pyrazin-1-yl)-N-(4-(trifluoromethyl)pyridin-2-yl)benzamide]"
–,100 to 1000,"CCN(CC)c1nc(-c2ccc(C(=O)Nc3ccccn3)cc2)c2c(N)nccn12 [Example 213, 4-(8-amino-3-(diethylamino)imidazo[1,5-a]pyrazin-1-yl)-N-(pyridin-2-yl)benzamide]"
–,100 to 1000,"COC1CN(c2nc(-c3ccc(C(=O)Nc4ccccn4)cc3)c3c(N)nccn23)C1 [Example 217, 4-(8-amino-3-(3-methoxyazetidin-1-yl)imidazo[1,5-a]pyrazin-1-yl)-N-(pyridin-2-yl)benzamide]"
< 10,–,"CC1(C(=O)N[C@H]2CCCN(c3nc(-c4ccc(C(=O)Nc5cc(C(F)(F)F)ccn5)cc4)c4c(N)nccn34)C2)COC1 [Example 218, (S)-N-(1-(8-amino-1-(4-(4-(trifluoromethyl)pyridin-2-ylcarbamoyl)phenyl)imidazo [1,5-a]pyrazin-3-yl)piperidin-3-yl)-3-methyloxetane-3-carboxamide]"
< 10,–,"Nc1nccn2c(N3CCC[C@@H](NC(=O)C4CC4)C3)nc(-c3ccc(C(=O)Nc4cc(C(F)(F)F)ccn4)cc3)c12 [Example 220, (R)-4-(8-amino-3-(3-(cyclopropanecarboxamido)piperidin-1-yl)imidazo[1,5-a]pyrazin-1-yl)-N-(4-(trifluoromethyl)pyridin-2-yl)benzamide]"
< 10,–,"Nc1nccn2c(N3CCC[C@H](NC(=O)C4CC4)C3)nc(-c3ccc(C(=O)Nc4cc(C(F)(F)F)ccn4)cc3)c12 [Example 222, (S)-4-(8-amino-3-(3-(cyclopropanecarboxamido)piperidin-1-yl)imidazo[1,5-a]pyrazin-1-yl)-N-(4-(trifluoromethyl)pyridin-2-yl)benzamide]"
< 10,–,"Nc1nccn2c(N3CCC[C@H](NC(=O)C4CCC4)C3)nc(-c3ccc(C(=O)Nc4cc(C(F)(F)F)ccn4)cc3)c12 [Example 223, (S)-4-(8-amino-3-(3-(cyclobutanecarboxamido)piperidin-1-yl)imidazo[1,5-a]pyrazin-1-yl)-N-(4-(trifluoromethyl)pyridin-2-yl)benzamide]"
–,10 to 100,"Nc1nccn2c(N3CCCC(C(=O)NCC4CC4)C3)nc(-c3ccc(C(=O)Nc4ccccn4)cc3)c12 (stereo not drawn) [Example 225, 1-(8-amino-1-(4-(pyridin-2-ylcarbamoyl)phenyl)imidazo[1,5-a]pyrazin-3-yl)-N-(cyclopropylmethyl)-piperidine-3-carboxamide, TFA sat]"
< 10,–,"Nc1nccn2c(N3CCCC(C(=O)NC4CC(F)(F)C4)C3)nc(-c3ccc(C(=O)Nc4cc(C(F)(F)F)ccn4)cc3)c12 (stereo not drawn) [Example 226, 1-(8-amino-1-(4-(4-(trifluoromethyl)pyridin-2-ylcarbamoyl)phenyl)imidazo[1,5-a]pyrazin-3-yl)-N-(3,3-difluorocyclobutyl)piperidine-3-carboxamide, TFA salt]"
< 10,–,"COC[C@H](C)NC(=O)C1CCCN(c2nc(-c3ccc(C(=O)Nc4ccccn4)cc3)c3c(N)nccn23)C1 (stereo partly drawn) [Example 235, 1-(8-amino-1-(4-(pyridin-2-ylcarbamoyl)phenyl)imidazo[1,5-a]pyrazin-3-yl)-N-((S)-1-methoxypropan-2-yl)piperidine-3-carboxamide, TFA salt]"
